Reference: US20260092071A1, “COMPOUNDS AND COMPOSITIONS AS SMARCA2/4 DEGRADERS AND USES THEREOF” (REGENTS OF THE UNIVERSITY OF MICHIGAN, priority 2022, published 2026)
Where two headings read alike, the source gives them in different places.

What was measured:
SMARCA4 = SMARCA4 (Homo sapiens, UniProt P51532); assay: HiBiT assay for protein degradation, Hela SMARCA4-HiBiT cells (A series); assay type: cell-based; design: fuse HiBiT to the carboxy terminus of SMARCA2 (Promega CS302365) or SMARCA4 (Promega CS3023225); host or cells: HeLa (CRISPR/Cas9 HiBiT knock-in); settings: for DC50: read-out: SMARC A4 Hela HiBit DC50
How it was run: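 SMARCA4 degradation was measured in HeLa cells in which HiBiT had been knocked into the SMARCA4 carboxy terminus via CRISPR/Cas9 (Promega CS3023225). Cells were maintained in DMEM with FBS and penicillin-streptomycin. At the end of treatment, SMARCA4 levels were read by lytic HiBiT luminescence (Nano-Glo®, Promega N3050), and data were analyzed with GraphPad Prism.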

SMARCA2 = SMARCA2 (Homo sapiens, UniProt P51531); assay: HiBiT assay for protein degradation, Hela SMARCA2-HiBiT cells (A series); assay type: cell-based; design: Hela cells were genetically modified via CRISPR/Cas9 to fuse HiBiT to the carboxy terminus of SMARCA2; host or cells: HeLa (CRISPR/Cas9 HiBiT knock-in); settings: for DC50: read-out: SMARC A2 Hela HiBit DC50; for Dmax: read-out: SMARC A2 Hela HiBit Dmax (%);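 for SMARC A2 Hela HiBit Dmax (%): 24 h compound treatment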
How it was run: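 SMARCA2 degradation was measured in HeLa cells whose endogenous SMARCA2 carries a carboxy-terminal HiBiT tag introduced by CRISPR/Cas9 (Promega CS302365). Cells were maintained in DMEM with FBS and penicillin-streptomycin. SMARCA2 levels were read at the end of the experiment by Nano-Glo® HiBiT lytic luminescence (Promega N3050) and analyzed in GraphPad Prism.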

[1] = Hela SMARCA4-HiBiT cells, 24 hours treatment
[2] = Hela SMARCA4-HiBiT cells, 24 hours treatment, read-out: SMARC A4 Hela HiBit Dmax
[3] = Hela SMARCA2-HiBiT cells, 24 hours treatment

Chain of SMARCA2 (P51531 whole entry): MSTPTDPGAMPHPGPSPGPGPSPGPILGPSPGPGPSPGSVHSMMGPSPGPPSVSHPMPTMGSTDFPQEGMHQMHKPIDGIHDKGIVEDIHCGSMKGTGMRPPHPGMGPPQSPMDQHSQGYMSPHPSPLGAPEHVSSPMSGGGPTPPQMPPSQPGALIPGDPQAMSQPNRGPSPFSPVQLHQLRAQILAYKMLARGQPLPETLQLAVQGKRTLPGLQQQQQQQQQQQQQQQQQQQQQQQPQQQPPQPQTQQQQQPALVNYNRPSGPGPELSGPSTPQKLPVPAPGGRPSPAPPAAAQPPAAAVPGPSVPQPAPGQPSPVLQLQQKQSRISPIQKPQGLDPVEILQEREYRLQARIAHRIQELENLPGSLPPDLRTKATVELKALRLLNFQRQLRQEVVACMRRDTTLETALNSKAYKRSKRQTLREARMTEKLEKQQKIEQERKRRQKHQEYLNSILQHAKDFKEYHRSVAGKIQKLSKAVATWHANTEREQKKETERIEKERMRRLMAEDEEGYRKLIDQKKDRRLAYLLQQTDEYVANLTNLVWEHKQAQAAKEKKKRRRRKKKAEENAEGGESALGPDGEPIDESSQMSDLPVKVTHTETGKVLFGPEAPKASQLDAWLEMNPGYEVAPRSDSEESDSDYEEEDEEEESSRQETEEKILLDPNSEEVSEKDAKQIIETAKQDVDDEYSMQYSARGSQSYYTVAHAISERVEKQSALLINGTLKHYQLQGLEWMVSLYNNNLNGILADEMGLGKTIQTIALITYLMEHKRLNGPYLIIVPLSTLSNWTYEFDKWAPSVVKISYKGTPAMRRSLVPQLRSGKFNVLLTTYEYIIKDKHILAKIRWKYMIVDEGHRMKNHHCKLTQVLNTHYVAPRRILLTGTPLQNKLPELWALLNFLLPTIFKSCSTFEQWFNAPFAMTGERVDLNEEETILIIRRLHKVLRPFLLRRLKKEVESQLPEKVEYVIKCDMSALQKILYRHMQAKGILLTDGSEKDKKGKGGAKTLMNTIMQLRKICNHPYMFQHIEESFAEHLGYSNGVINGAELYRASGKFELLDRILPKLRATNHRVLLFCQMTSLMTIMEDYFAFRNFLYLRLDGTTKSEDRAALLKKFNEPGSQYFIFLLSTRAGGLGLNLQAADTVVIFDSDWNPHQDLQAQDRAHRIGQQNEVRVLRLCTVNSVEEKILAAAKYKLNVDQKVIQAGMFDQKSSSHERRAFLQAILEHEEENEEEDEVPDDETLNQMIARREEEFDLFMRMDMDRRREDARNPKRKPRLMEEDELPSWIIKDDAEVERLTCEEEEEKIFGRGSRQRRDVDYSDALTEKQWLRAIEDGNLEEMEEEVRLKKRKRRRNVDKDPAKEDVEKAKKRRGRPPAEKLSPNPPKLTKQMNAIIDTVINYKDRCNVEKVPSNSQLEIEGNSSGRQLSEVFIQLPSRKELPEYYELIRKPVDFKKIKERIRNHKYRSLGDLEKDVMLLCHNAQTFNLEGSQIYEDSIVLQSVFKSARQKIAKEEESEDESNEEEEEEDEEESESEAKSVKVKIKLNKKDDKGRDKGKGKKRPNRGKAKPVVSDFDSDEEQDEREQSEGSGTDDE
Chain of SMARCA4 (P51532 whole entry): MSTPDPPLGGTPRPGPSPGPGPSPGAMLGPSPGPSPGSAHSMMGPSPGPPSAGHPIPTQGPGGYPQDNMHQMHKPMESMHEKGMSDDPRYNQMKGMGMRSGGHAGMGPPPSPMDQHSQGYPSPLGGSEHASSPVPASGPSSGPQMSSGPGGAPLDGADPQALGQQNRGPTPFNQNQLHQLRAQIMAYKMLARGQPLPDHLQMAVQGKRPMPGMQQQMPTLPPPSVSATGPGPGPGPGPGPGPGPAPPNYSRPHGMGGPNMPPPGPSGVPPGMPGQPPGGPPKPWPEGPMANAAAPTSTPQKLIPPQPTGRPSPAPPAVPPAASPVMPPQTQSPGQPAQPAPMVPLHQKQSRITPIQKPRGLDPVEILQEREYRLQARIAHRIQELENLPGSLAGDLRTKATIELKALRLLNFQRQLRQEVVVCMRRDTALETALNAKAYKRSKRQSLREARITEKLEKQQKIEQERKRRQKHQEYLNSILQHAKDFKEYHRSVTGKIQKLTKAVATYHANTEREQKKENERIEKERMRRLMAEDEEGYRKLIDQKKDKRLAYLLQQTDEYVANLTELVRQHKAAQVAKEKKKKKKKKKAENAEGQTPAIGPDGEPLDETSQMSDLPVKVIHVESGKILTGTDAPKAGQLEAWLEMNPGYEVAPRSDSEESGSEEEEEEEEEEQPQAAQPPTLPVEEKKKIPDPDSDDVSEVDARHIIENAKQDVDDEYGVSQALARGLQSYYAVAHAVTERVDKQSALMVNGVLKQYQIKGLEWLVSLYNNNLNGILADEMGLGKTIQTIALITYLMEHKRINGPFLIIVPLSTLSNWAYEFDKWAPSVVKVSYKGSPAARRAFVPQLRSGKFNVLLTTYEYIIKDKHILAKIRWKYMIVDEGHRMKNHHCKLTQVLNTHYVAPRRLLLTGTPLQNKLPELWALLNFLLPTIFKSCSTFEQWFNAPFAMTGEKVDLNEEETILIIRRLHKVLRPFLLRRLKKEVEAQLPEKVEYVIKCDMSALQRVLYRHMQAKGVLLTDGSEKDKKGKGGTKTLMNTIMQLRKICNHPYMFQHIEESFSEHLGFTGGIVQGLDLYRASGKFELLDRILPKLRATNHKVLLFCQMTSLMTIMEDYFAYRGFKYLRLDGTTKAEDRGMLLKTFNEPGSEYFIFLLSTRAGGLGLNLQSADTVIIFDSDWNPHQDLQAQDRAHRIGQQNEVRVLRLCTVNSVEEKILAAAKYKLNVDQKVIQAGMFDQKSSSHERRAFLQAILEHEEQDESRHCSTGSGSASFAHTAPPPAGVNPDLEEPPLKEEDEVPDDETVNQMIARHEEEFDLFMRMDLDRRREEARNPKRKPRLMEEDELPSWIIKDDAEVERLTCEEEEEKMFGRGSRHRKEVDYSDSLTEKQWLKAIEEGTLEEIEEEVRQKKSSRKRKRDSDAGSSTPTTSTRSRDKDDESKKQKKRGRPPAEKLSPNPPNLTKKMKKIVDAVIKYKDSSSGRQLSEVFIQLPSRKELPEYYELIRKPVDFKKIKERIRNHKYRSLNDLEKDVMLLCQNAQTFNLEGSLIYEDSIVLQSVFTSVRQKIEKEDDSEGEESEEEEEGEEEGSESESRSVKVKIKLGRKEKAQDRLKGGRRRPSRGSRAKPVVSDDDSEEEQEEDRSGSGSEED

Cc1ncsc1-c1ccc([C@H](CN2CCOCC2)NC(=O)[C@@H]2C[C@@H](O)CN2C(=O)[C@H](C(C)C)n2cc([C@H]3CC[C@H](CN4CCC(c5ccc6c(c5)-n5c(nc(=O)c7c(Cl)cccc75)C6(C)C)CC4)CC3)nn2)cc1 [Compound A104, (2S,4R)-1-((S)-2-(4-((1r,4S)-4-((4-(4-chloro-7,7-dimethyl-5-oxo-5,7-dihydroindolo[1,2-a]quinazolin-10-yl)piperidin-1-yl)methyl)cyclohexyl)-1H-1,2,3-triazol-1-yl)-3-methylbutanoyl)-4-hydroxy-N-((R)-1-(4-(4-methylthiazol-5-yl)phenyl)-2-morpholinoethyl)pyrrolidine-2-carboxamide]
DC50 (SMARCA4; [1]): > 1000 nM | Dmax (SMARCA4; [2]): 50 to 69% | DC50 (SMARCA2; [3]): < 10 nM | Dmax (SMARCA2; [3]): > 90%

Cc1ncsc1-c1ccc([C@H](C)NC(=O)[C@@H]2C[C@@H](O)CN2C(=O)[C@H](C2CCCCC2)n2cc([C@H]3CC[C@H](CN4CCC(c5ccc6c(c5)-n5c(nc(=O)c7c(Br)cccc75)C65CCCCC5)CC4)CC3)nn2)cc1 [Compound A119, (2S,4R)-1-((S)-2-(4-((1r,4S)-4-((4-(4′-bromo-5′-oxo-5′H-spiro[cyclohexane-1,7′-indolo[1,2-a]quinazolin]-10′-yl)piperidin-1-yl)methyl)cyclohexyl)-1H-1,2,3-triazol-1-yl)-2-cyclohexylacetyl)-4-hydroxy-N—((S)-1-(4-(4-methylthiazol-5-yl)phenyl)ethyl)pyrrolidine-2-carboxamide]
DC50 (SMARCA4; [1]): 10 to 100 nM | Dmax (SMARCA4; [2]): 70 to 90% | DC50 (SMARCA2; [3]): < 10 nM | Dmax (SMARCA2; [3]): > 90%

Cc1ncsc1-c1ccc([C@H](C)NC(=O)[C@@H]2C[C@@H](O)CN2C(=O)[C@@H](n2cc(CCCCCCN3CCC(c4ccc5c(c4)-n4c(nc(=O)c6c(Br)cccc64)C54CCCCC4)CC3)nn2)C(C)(C)C)cc1 [Compound A47, (2S,4R)-1-((S)-2-(4-(6-(4-(4′-bromo-5′-oxo-5′H-spiro[cyclohexane-1,7′-indolo[1,2-a]quinazolin]-10′-yl)piperidin-1-yl)hexyl)-1H-1,2,3-triazol-1-yl)-3,3-dimethylbutanoyl)-4-hydroxy-N—((S)-1-(4-(4-methylthiazol-5-yl)phenyl)ethyl)pyrrolidine-2-carboxamide]
SMARC A4 Hela HiBit Dmax(%) (SMARCA4; [1]): A (A (>90% degradation)) | DC50 (SMARCA4): < 100 nM | SMARC A2 Hela HiBit Dmax (%) (SMARCA2; [3]): A (A (>90% degradation)) | DC50 (SMARCA2): < 100 nM

Cc1ncsc1-c1ccc([C@H](CNC(=O)[C@H]2CC[C@H](CN3CCC(c4ccc5c(c4)-n4c(nc(=O)c6c(Br)cccc64)C54CCCCC4)CC3)CC2)NC(=O)[C@@H]2C[C@@H](O)CN2C(=O)[C@@H](n2cc(C3CC3)nn2)C(C)(C)C)cc1 [Compound A116, (2S,4R)—N—((R)-2-((1r,4R)-4-((4-(4′-bromo-5′-oxo-5′H-spiro[cyclohexane-1,7′-indolo[1,2-a]quinazolin]-10′-yl)piperidin-1-yl)methyl)cyclohexane-1-carboxamido)-1-(4-(4-methylthiazol-5-yl)phenyl)ethyl)-1-((S)-2-(4-cyclopropyl-1H-1,2,3-triazol-1-yl)-3,3-dimethylbutanoyl)-4-hydroxypyrrolidine-2-carboxamide]
DC50 (SMARCA4; [1]): > 1000 nM | Dmax (SMARCA4; [2]): < 50% | DC50 (SMARCA2; [3]): > 1000 nM | Dmax (SMARCA2; [3]): < 50%

Cc1ncsc1-c1ccc([C@H](C)NC(=O)[C@@H]2C[C@@H](O)CN2C(=O)[C@@H](NC(=O)[C@H]2CC[C@H](CN3CCC(c4ccc5c(c4)C4(CCCCC4)c4nc(=O)c6c(Cl)cccc6n4-5)CC3)CC2)C(C)(C)C)cc1 [Compound A11, (2S,4R)-1-((S)-2-((1r,4S)-4-((4-(4′-chloro-5′-oxo-5′H-spiro[cyclohexane-1,7′-indolo[1,2-a]quinazolin]-9′-yl)piperidin-1-yl)methyl)cyclohexane-1-carboxamido)-3,3-dimethylbutanoyl)-4-hydroxy-N—((S)-1-(4-(4-methylthiazol-5-yl)phenyl)ethyl)pyrrolidine-2-carboxamide]
Dmax (SMARCA4; HeLa, read-out: SMARC A4 Hela HiBit Dmax(%)): < 50% | SMARC A4 Hela HiBit DC50(nM) (SMARCA4; [1]): No fit | Dmax (SMARCA2; HeLa): 70 to 90% | DC50 (SMARCA2; [3]): < 100 nM

COCCOCCOC[C@H](NC(=O)[C@@H]1C[C@@H](O)CN1C(=O)[C@@H](n1cc([C@H]2CC[C@H](CN3CCC(c4ccc5c(c4)-n4c(nc(=O)c6c(Cl)cccc64)C5(C)C)CC3)CC2)nn1)C(C)(C)C)c1ccc(-c2scnc2C)cc1 [Compound A92]
DC50 (SMARCA4; [1]): > 1000 nM | Dmax (SMARCA4; [2]): < 50% | DC50 (SMARCA2; [3]): < 10 nM | Dmax (SMARCA2; [3]): 70 to 90%

COC(=O)COC[C@H](NC(=O)[C@@H]1C[C@@H](O)CN1C(=O)[C@@H](n1cc([C@H]2CC[C@H](CN3CCC(c4ccc5c(c4)-n4c(nc(=O)c6c(Cl)cccc64)C54CCCCC4)CC3)CC2)nn1)C(C)(C)C)c1ccc(-c2scnc2C)cc1 [Compound A152, methyl 2-((R)-2-((2S,4R)-1-((S)-2-(4-((1r,4S)-4-((4-(4′-chloro-5′-oxo-5′H-spiro[cyclohexane-1,7′-indolo[1,2-a]quinazolin]-10′-yl)piperidin-1-yl)methyl)cyclohexyl)-1H-1,2,3-triazol-1-yl)-3,3-dimethylbutanoyl)-4-hydroxypyrrolidine-2-carboxamido)-2-(4-(4-methylthiazol-5-yl)phenyl)ethoxy)acetate]
DC50 (SMARCA4; [1]): > 1000 nM | Dmax (SMARCA4; [2]): 50 to 69% | DC50 (SMARCA2; [3]): < 10 nM | Dmax (SMARCA2; [3]): > 90%

Cc1ncsc1-c1ccc([C@H](C)NC(=O)[C@@H]2C[C@@H](O)CN2C(=O)[C@@H](n2cc(CCCN3CCC(c4ccc5c(c4)C4(CCCCC4)c4nc(=O)c6c(Br)cccc6n4-5)CC3)nn2)C(C)(C)C)cc1 [Compound A55, (2S,4R)-1-((S)-2-(4-(3-(4-(4′-bromo-5′-oxo-5′H-spiro[cyclohexane-1,7′-indolo[1,2-a]quinazolin]-9′-yl)piperidin-1-yl)propyl)-1H-1,2,3-triazol-1-yl)-3,3-dimethylbutanoyl)-4-hydroxy-N—((S)-1-(4-(4-methylthiazol-5-yl)phenyl)ethyl)pyrrolidine-2-carboxamide]
DC50 (SMARCA4; [1]): < 100 nM | Dmax (SMARCA4; Hela SMARCA4-HiBiT cells, 24 hours treatment, read-out: SMARC A4 Hela HiBit Dmax(%)): > 90% | DC50 (SMARCA2; [3]): < 100 nM | Dmax (SMARCA2; [3]): > 90%

Cc1ncoc1-c1ccc([C@H](CN2CCOCC2)NC(=O)[C@@H]2C[C@@H](O)CN2C(=O)[C@@H](n2cc([C@H]3CC[C@H](CN4CCC(c5ccc6c(c5)-n5c(nc(=O)c7c(Cl)cccc75)C65CCCCC5)CC4)CC3)nn2)C(C)(C)C)cc1 [Compound A165, (2S,4R)-1-((S)-2-(4-((1r,4S)-4-((4-(4′-chloro-5′-oxo-5′H-spiro[cyclohexane-1,7′-indolo[1,2-a]quinazolin]-10′-yl)piperidin-1-yl)methyl)cyclohexyl)-1H-1,2,3-triazol-1-yl)-3,3-dimethylbutanoyl)-4-hydroxy-N—((R)-1-(4-(4-methyloxazol-5-yl)phenyl)-2-morpholinoethyl)pyrrolidine-2-carboxamide]
DC50 (SMARCA4; [1]): > 1000 nM | Dmax (SMARCA4; [2]): < 50% | DC50 (SMARCA2; [3]): < 10 nM | Dmax (SMARCA2; [3]): > 90%

Cc1ccccc1-c1ccc([C@H](CN2CCOCC2)NC(=O)[C@@H]2C[C@@H](O)CN2C(=O)[C@@H](n2cc([C@H]3CC[C@H](CN4CCC(c5ccc6c(c5)-n5c(nc(=O)c7c(Cl)cccc75)C65CCCCC5)CC4)CC3)nn2)C(C)(C)C)cc1 [Compound A163, (2S,4R)-1-((S)-2-(4-((1r,4S)-4-((4-(4′-chloro-5′-oxo-5′H-spiro[cyclohexane-1,7′-indolo[1,2-a]quinazolin]-10′-yl)piperidin-1-yl)methyl)cyclohexyl)-1H-1,2,3-triazol-1-yl)-3,3-dimethylbutanoyl)-4-hydroxy-N—((R)-1-(2′-methyl-[1,1′-biphenyl]-4-yl)-2-morpholinoethyl)pyrrolidine-2-carboxamide]
DC50 (SMARCA4; [1]): 100 to 1000 nM | Dmax (SMARCA4; [2]): 50 to 69% | DC50 (SMARCA2; [3]): < 10 nM | Dmax (SMARCA2; [3]): > 90%
